Experimental data: patent US9980928B2, “Hydroxy aliphatic substituted phenyl aminoalkyl ether derivatives” (PROUS INSTITUTE FOR BIOMEDICAL RESEARCH, S.A., priority 2012, dated 2018)
Counter-ions that a name gives are not always drawn. Like-named read-outs stand apart in the source and are kept apart here.

Experiments:
[1] = molecular target: uptake of serotonin (Homo sapiens, UniProt P31645); test: Uptake inhibition of serotonin, cellular assay; format: cell-based
Method: (§1) The effect of the compounds of the present invention as inhibitors of the uptake of norepinephrine and serotonin in cellular assays at concentrations that range from […] to 1 nM is determined following the methods described in Galli, A. et al. J Exp Biol 1995, 198(Pt. 10): 2197-212 and Gu, H. et al. J Biol Chem. 1994, 269(10):7124-30.

[2] = molecular target: uptake of norepinephrine (Homo sapiens, UniProt P23975); test: Uptake inhibition of norepinephrine, cellular assay; format: cell-based
Sequence of uptake of norepinephrine (P23975 whole entry): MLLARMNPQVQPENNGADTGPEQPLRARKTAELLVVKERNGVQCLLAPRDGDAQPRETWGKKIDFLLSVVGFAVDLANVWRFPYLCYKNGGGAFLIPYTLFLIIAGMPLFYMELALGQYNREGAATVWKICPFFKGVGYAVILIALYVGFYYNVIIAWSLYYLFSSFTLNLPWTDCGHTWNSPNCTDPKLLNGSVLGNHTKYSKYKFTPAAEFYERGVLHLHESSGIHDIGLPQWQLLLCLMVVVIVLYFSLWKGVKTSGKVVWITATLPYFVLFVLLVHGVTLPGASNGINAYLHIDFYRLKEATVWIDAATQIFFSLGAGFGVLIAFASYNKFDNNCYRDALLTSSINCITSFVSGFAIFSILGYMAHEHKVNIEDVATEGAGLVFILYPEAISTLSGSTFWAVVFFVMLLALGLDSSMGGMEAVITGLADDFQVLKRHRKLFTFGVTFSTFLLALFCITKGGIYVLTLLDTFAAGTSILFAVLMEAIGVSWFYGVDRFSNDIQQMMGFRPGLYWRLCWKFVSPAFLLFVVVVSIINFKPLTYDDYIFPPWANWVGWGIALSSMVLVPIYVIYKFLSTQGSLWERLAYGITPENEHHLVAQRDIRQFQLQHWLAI
Method: as §1

[3] = molecular target: T1, serotonin transporter (Homo sapiens, UniProt P31645); test: Serotonin transporter binding radioligand inhibition ([3H]-imipramine); settings: read-out: serotonin binding inhibition
T1 construct: expressed in transfected cells; host or cells: CHO cells
T1 sequence (P31645 whole entry): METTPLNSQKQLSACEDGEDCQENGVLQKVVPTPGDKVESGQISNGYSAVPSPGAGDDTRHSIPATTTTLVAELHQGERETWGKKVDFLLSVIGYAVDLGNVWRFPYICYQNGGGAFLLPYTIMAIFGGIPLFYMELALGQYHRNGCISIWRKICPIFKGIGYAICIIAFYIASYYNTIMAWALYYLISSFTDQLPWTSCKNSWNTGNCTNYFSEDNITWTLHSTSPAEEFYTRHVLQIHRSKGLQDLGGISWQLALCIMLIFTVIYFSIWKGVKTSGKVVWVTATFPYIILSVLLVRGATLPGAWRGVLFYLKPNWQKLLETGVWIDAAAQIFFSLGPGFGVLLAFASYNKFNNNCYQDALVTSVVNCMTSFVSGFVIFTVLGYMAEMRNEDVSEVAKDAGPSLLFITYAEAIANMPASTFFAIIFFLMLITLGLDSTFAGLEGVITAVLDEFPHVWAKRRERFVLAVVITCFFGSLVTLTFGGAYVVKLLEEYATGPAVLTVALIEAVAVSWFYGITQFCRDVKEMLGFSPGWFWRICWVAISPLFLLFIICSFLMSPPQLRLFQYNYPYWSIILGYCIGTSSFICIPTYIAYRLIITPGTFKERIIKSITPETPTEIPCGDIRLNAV
Excerpt: The serotonin transporter removes serotonin from the synaptic deft. The serotonin transporter terminates the effects of […], enabling its reuse by the presynaptic neuron.

[4] = molecular target: T2, norepinephrine (NE) transporter (Homo sapiens, UniProt P23975); test: Norepinephrine transporter binding radioligand inhibition ([3H]-nisoxetine); settings: concentration 10 μM
T2 construct: expressed in transfected cells; host or cells: CHO cells
T2 sequence (P23975 whole entry): as the sequence (P23975 whole entry) above
Method: The norepinephrine (NE) transporter removes NE from the synaptic cleft. The NE transporter terminates the effects of […], enabling its reuse by the presynaptic neuron. The in vitro binding of the compounds of the invention to the NE transporter and the percent inhibition of control-specific binding ([^3H]-nisoxetine in human recombinant CHO cells) is determined following the method described in Pacholczyk et al., (Nature 1991, 350(6316): 350-4.

[5] = read-out: Serotonin reuptake inhibition (IC50 μM)
[6] = read-out: Norepinephrine reuptake inhibition (IC50 μM)
[7] = Serotonin reuptake inhibition (IC50 μM)
[8] = Norepinephrine reuptake inhibition (IC50 μM)

Sequence of uptake of serotonin (P31645 whole entry): as the sequence (P31645 whole entry) above

SMILES | IC50 [1, 5] [µM] | IC50 [2, 6] [µM] | inhibition at 10 µM ([3]; concentration 10 μM) [%] | inhibition at 10 µM [4] [%] | inhibition at 10 µM [3] [%] | IC50 [1, 7] [µM] | IC50 [2, 8] [µM]
CNCCC(Oc1ccc(CCO)cc1)c1ccccc1 (single isomer, unassigned) [Example 6, 2-[4-[3-(Methylamino)-1-phenylpropoxy]phenyl]ethanol ferulic acid salt] | 2.5 to 4.8 | 1.6 to 2.9 |  |  |  |  | 
CNCCC(Oc1ccc(CCO)cc1)c1ccccc1 (single isomer, unassigned) [Example 7, 2-[4-[3-(Methylamino)-1-phenylpropoxy]phenyl]ethanol caffeic acid salt] | 2.5 to 4.8 | 1.6 to 2.9 | 68 to 82 |  |  |  | 
O=C1CCCN1CCOc1ccc(CCO)cc1 [Example 1, 1-[2-[4-(2-Hydroxyethyl)phenoxy]ethyl]pyrrolidin-2-one] | 2.5 to 4.8 | 1.6 to 2.9 | 68 to 82 | 65 to 90 |  |  | 
CNCCC(Oc1ccc(CCO)cc1)c1ccccc1 [Example 5, 2-[4-[3-(Methylamino)-1-phenylpropoxy]phenyl]ethanol L-ascorbic acid salt] |  |  |  | 65 to 90 | 68 to 82 | 2.5 to 4.8 | 1.6 to 2.9
CNCCC(Oc1ccc(CCO)cc1)c1ccccc1 (stereo not shown) [Example 8, 2-[4-[3-(Methylamino)-1-phenylpropoxy]phenyl]ethanol valproic acid salt] |  |  |  |  |  | 2.5 to 4.8 | 1.6 to 2.9
CNCCC(Oc1ccc(CCO)cc1)c1ccccc1 [Example 9, 2-[4-[3-(Methylamino)-1-phenylpropoxy]phenyl]ethanol (R)-lipoic acid salt] |  |  |  |  |  | 2.5 to 4.8 | 1.6 to 2.9
CNCCC(Oc1ccc(CCOC(C)=O)cc1)c1ccccc1 (stereo not shown) [Example 10, 4-[3-(Methylamino)-1-phenylpropoxy]phenethyl acetate hydrochloride] | 2.5 to 4.8 | 1.6 to 2.9 | 68 to 82 | 65 to 90 |  |  | 
CCCC(CCC)C(=O)N(C)CCC(Oc1ccc(CCO)cc1)c1ccccc1 (stereo not shown) [Example 11, N-[3-[4-(2-Hydroxyethyl)phenoxy]-3-phenylpropyl]-N-methyl-2-propylpentanamide] | 2.5 to 4.8 | 1.6 to 2.9 | 68 to 82 | 65 to 90 |  |  | 
CNCC[C@@H](Oc1ccc(CCO)cc1)c1cccs1 [Example 13, (R)-2-[4-[3-(Methylamino)-1-(thiophen-2-yl)propoxy]phenyl]ethanol] | 2.6 | 2.8 | 79 | 80 |  |  | 
CNCCC(Oc1ccc(CCCCO)cc1)c1ccccc1 (stereo not shown) [Example 14, 4-[4-[3-(Methylamino)-1-phenylpropoxy]phenyl]butan-1-ol hydrochloride] | 0.32 | 0.74 | 89 | 85 |  |  | 
CN(CCC(Oc1ccc(/C=C/CO)cc1)c1ccccc1)C(=O)OC(C)(C)C (stereo not shown) [Example 15, (E)-tert-Butyl [3-[4-(3-hydroxyprop-1-enyl)phenoxy]-3-phenylpropyl](methyl)carbamate] | 2.5 to 4.8 | 1.6 to 2.9 | 68 to 82 | 65 to 90 |  |  | 
CNCCC(Oc1ccc(CCCO)cc1)c1ccccc1 (stereo not shown) [Example 16, 3-[4-[3-(Methylamino)-1-phenylpropoxy]phenyl]propan-1-ol hydrochloride] | 2.36 | 0.46 | 78 | 90 |  |  | 
CNCCC(Oc1ccc(CO)cc1)c1ccccc1 (stereo not shown) [Example 17, [4-[3-(Methylamino)-1-phenylpropoxy]phenyl]methanol hydrochloride] | 0.42 | 0.13 | 97 | 94 |  |  | 
CNCCC(Oc1cc(CO)cc(CO)c1)c1ccccc1 (stereo not shown) [Example 19, [5-[3-(Methylamino)-1-phenylpropoxy]-1,3-phenylene]dimethanol hydrochloride] | 4.35 | 1.59 | 79 | 75 |  |  | 
